These results are taken from patent US9617310B2 (priority 2013, dated 2017).

The target of one experiment is T1, NS3 genotype 3a protease (UniProt Q81258).
T1 construct: Purified NS3 protease domain (amino acids 1-181) of the genotype 1b and 3a virus were generated as above; fused on or other part: N-terminal hexahistidine tag with an rTEV protease cleavage site (vector p28-N6H-Tev-NS3(181)3)
T1 sequence (Q81258 1033-1663): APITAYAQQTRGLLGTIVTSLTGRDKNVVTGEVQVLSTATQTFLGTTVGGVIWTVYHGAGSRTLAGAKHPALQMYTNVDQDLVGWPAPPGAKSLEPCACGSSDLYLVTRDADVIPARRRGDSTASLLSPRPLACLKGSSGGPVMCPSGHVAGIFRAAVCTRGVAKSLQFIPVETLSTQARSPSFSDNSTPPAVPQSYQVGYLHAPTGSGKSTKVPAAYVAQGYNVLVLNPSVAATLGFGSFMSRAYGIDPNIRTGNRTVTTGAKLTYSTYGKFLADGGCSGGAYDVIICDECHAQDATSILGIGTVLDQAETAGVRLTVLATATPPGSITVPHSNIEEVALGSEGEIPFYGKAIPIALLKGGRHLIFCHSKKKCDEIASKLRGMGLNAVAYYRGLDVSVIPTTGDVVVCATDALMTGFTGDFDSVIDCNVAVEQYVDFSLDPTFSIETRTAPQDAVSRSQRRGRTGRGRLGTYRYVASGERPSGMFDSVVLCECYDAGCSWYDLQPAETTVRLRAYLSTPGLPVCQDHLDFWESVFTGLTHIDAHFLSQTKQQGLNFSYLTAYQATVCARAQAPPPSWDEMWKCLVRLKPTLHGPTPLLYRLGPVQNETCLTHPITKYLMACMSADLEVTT
The experiment can be described thus: Ki determination, NS3 protease genotype 3a (fluorogenic depsipeptide substrate). It counts as biochemical, hepatitis C virus. Particulars: NS3 protease domain genotype 3a, NS4A peptide. The text has this:
Ki Determination for Genotypes 1b and 3a NS3 Protease.
Purified NS3 protease domain (amino acids 1-181) of the genotype 1b and 3a virus were generated as above. The internally quenched fluorogenic depsipeptide substrate Ac-DED(Edans)-EEAbuψ[COO]ASK(Dabcyl)-NH2 and a synthetic peptide containing the hydrophobic core residues of the NS4A protein cofactor ([…]; NS4A peptide) were obtained from Anaspec, Inc. (San Jose, Calif.). Other chemicals and biochemicals were of reagent grade or better and were purchased from standard suppliers.
Reactions were run at room temperature in buffer consisting of 50 mM HEPES, 40% glycerol, 0.05% Triton X-100, 10 mM DTT, and 10% DMSO. The final assay solutions contained 50 pM NS3 genotype 1b protease or 200 pM genotype 3a protease, 20 μM NS4A peptide, and 4 μM substrate (genotype 1b) or 2 μM substrate (genotype 3a). Inhibitor concentrations varied from 100 nM to 5 pM in 3-fold dilutions, and no-inhibitor controls were included.
Compound dilutions were made in DMSO at 20× final concentration. Reaction mixtures were prepared in 96-well assay plates. A solution of enzyme and NS4A peptide in assay buffer (25 μL volume with both reagents at 4× final concentration) was mixed with 45 μL assay buffer and 5 μL of either inhibitor or DMSO, and pre-incubated at room temperature for 1 hour. The reaction was started by addition of 25 μL substrate solution at 4× final concentration. Plates were mixed vigorously for 5-10 seconds and reactions were allowed to proceed for 90 minutes. Fluorescence was measured every 30 s between 90 and 120 minutes reaction time using a Tecan InfiniTe M1000 or PerkinElmer Envision multimode plate reader with an excitation wavelength of 340 nm and an emission wavelength of 490 nm.
Rates were calculated from the progress curves at steady state, in the time frame of 90-120 minutes after addition of substrate. To determine the Ki, rates were plotted as a function of inhibitor concentration, and the data were fit with equation 1 (Morrison, J. F., Biochimica et Biophysica Acta 1969, 185, 269-286) to calculate Ki^app using GraphPad Prism 5. Active fraction of enzyme was determined by active site titration with known potent inhibitors. Ki was calculated from Ki^app/(1+[[S]/Km]).

Experiment [1] relates to genotype 1b stable HCV replicon (Con1) in Huh-7-derived cells. The experiment can be described thus: Stable subgenomic HCV replicon, genotype 1b, Renilla luciferase. It counts as cell-based. Particulars: Hepatitis C virus, stable replicon genotype 1b, 72 h, read-out: EC50 1B RLUC. An outline of the steps:
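Replicons carry hRLuc-neo, EMCV IRES and NS3-NS5B with adaptive mutations: 1a H77 P1496L/S2204I, 1b Con1 E1202G/T1280I/K1846T, 4a ED43 Q1691R/S2204I. EC50 came from non-linear regression versus DMSO and a triple-inhibitor full-inhibition control.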
For orientation: Replicon systems follow genome replication, usually without infectious particles.

For experiment [2], the system named is genotype 2a stable HCV replicon (JFH-1) in Huh-7-derived cells. Description: Stable subgenomic HCV replicon, genotype 2a, Renilla luciferase. It counts as cell-based. Particulars: Hepatitis C virus, stable replicon genotype 2a, 72 h, read-out: EC50 2A RLUC. On the procedure:
(§1) Antiviral potency (EC50) was determined in both stable subgenomic HCV replicon cell lines and transient-transfected HCV replicon cells. The term half maximal effective concentration (EC50) refers to the concentration of a drug which induces a response halfway between the baseline and maximum after the exposure time specified below.
(§2) Stable subgenomic HCV replicons for genotype 1a, 1b, 2a, 3a, and 4a were established in Huh-7-derived cells as described by Lohmann et al (Lohmann V, Korner F, Koch J, et al Replication of subgenomic hepatitis C virus RNAs in a hepatoma cell line. Science 1999; 285:119-3). Each stable cell line contains a bicistronic HCV replicon that encodes a humanized Renilla luciferase (hRLuc) reporter gene fused to a selectable neomycin-resistance gene, followed by an EMCV IRES and the NS3-NS5B coding region of HCV. […] Luciferase activity was measured as a marker for intracellular HCV replication levels.
(§3) The genotype 1a stable replicon was derived from the H77 HCV strain and contained adaptive mutations P1496L and S2204I. The genotype 1b stable replicon was derived from the Con1 HCV strain and contained adaptive mutations E1202G, T1280I, and K1846T. […] The genotype 3a stable replicon was derived from the S52 HCV strain and contained adaptive mutations P1121 L, A1198T and S2210I (equivalent to S2204I in genotype 1). The genotype 4a stable replicon was derived from the ED43 HCV strain and contained adaptive mutations Q1691R and S2204I. All replicon cell lines were propagated in Huh-7-derived cells and maintained in Dulbecco's modified Eagle's Medium (DMEM) supplemented with 10% fetal bovine serum (FBS) and 0.5 mg/ml G418.
(§4) To perform EC50 assays, cells from each HCV replicon were dispensed into 384-well plates. Compounds were dissolved in DMSO at a concentration of 10 mM and diluted in DMSO using an automated pipetting instrument. Three-fold serially diluted compounds were directly added to the cells using an automated instrument. DMSO was used as a negative (solvent; no inhibition) control, and a combination of three HCV inhibitors including a protease inhibitor; an NS5A inhibitor and a nucleoside inhibitor was used at concentrations >100×EC50 as a positive control (100% inhibition). Seventy-two hours later, cells were lysed and Renilla luciferase activity were quantified as recommended by the manufacturer (Promega-Madison, Wis.). Non-linear regression was performed to calculate […], values.

Experiment [3] deals with genotype 3a stable HCV replicon (S52) in Huh-7-derived cells. The experiment can be described thus: Stable subgenomic HCV replicon, genotype 3a, Renilla luciferase. The settings on record: Hepatitis C virus, 72 h, read-out: EC50 3A RLUC. It counts as cell-based. Here is the method:
as §1, §2, §3, §4

Experiment [4] concerns NS3/4a protease inhibitor resistant variant D168A in genotype 1b transient HCV replicon. Description: Transient-transfected HCV replicon, genotype 1b D168A. It counts as cell-based. The settings on record: Hepatitis C virus, 72 h, read-out: EC50 1B D168A.

pEC50, pKi: −log10 of the molar value.

Usually pKi stands for the Ki on a negative log10 scale, so that one unit is a factor of ten. Low values mean a high Ki, high ones a low Ki. A word on the pEC50: it is the negative decadic logarithm of the EC50, by convention in mol/L. Consider `COc1ccc2nc3c(nc2c1)O[C@@H]1C[C@@H](C(=O)N[C@]2(C(=O)NS(=O)(=O)C4CC4)C[C@H]2C(F)F)N(C1)C(=O)[C@H](C(C)(C)C)NC(=O)O[C@@H]1[C@H]2CC[C@H](C2)[C@H]1CCCCC3` [Example 4, (1R,4S,4aR,8S,11S,13R,25aR)-8-tert-butyl-N-[(1R,2R)-1-[(cyclopropylsulfonyl)carbamoyl]-2-(difluoromethyl)cyclopropyl]-17-methoxy-6,9-dioxo-2,3,4,4a,6,7,8,9,12,13,21,22,23,24,25,25a-hexadecahydro-1H,11H-1, 4:10,13-dimethanoquinoxalino[2,3-k][1,10,3,6]benzodioxadiazacyclononadecine-11-carboxamide], for which the pKi on NS3 genotype 3a protease is 9.68. Further, the negative logarithm of the EC50 (pEC50) was 8.59 in experiment [1], 7.74 in experiment [2], 6.37 in experiment [3] and 6.95 in experiment [4].
Taken in the same sequence, the figures for `COc1ccc2nc3c(nc2c1)O[C@@H]1C[C@@H](C(=O)N[C@]2(C(=O)NS(=O)(=O)C4(C)CC4)C[C@H]2C(F)F)N(C1)C(=O)[C@H](C(C)(C)C)NC(=O)O[C@@H]1[C@H]2CC[C@H](C2)[C@H]1CCCCC3` [Example 5, (1R,4S,4aR,8S,11S,13R,25aR)-8-tert-butyl-N-[(1R,2R)-2-(difluoromethyl)-1-{[(1-methylcyclopropyl)sulfonyl]carbamoyl}cyclopropyl]-17-methoxy-6,9-dioxo-2,3,4,4a,6,7,8,9,12,13,21,22,23,24,25,25a-hexadecahydro-1H,11H-1, 4:10,13-dimethanoquinoxalino[2,3-k][1,10,3,6]benzodioxadiazacyclononadecine-11-carboxamide] were 9.57, 8.46, 7.85, 6.33 and 6.79.
Consider `COc1ccc2nc3c(nc2c1)O[C@@H]1C[C@@H](C(=O)N[C@]2(C(=O)NS(=O)(=O)C4CC4)C[C@H]2C(F)F)N(C1)C(=O)[C@H](C(C)(C)C)NC(=O)O[C@H]1[C@H](CCCCC3)C[C@H]2C[C@H]21` [Example 7, (1aR,1bS,5S,8S,10R,22aR,23aR)-5-tert-butyl-N-[(1R,2R)-1-[(cyclopropylsulfonyl)carbamoyl]-2-(difluoromethyl)cyclopropyl]-14-methoxy-3,6-dioxo-1a,1b,3,4,5,6,9,10,18,19,20,21,22,22a,23,23a-hexadecahydro-1H,8H-7,10-methanocyclopropa[3′,40]cyclopenta[1′,2′:18,19][1,10,3,6]dioxadiazacyclononadecino[11,12-b]quinoxaline-8-carboxamide], for which the pKi on NS3 genotype 3a protease was 8.02. Also, the negative-log EC50 (pEC50) in experiment [1] is 7.09; in experiment [2], 6.70; in experiment [3] it was 5.48; in experiment [4], 5.97.
For `COc1ccc2nc3c(nc2c1)O[C@@H]1C[C@@H](C(=O)N[C@]2(C(=O)NS(=O)(=O)C4(C)CC4)C[C@H]2C(F)F)N(C1)C(=O)[C@H](C(C)(C)C)NC(=O)O[C@H]1[C@H](CCCCC3)C[C@H]2C[C@H]21` [Example 8, (1aR,1bS,5S,8S,10R,22aR,23aR)-5-tert-butyl-N-[(1R,2R)-2-(difluoromethyl)-1-{[(1-methylcyclopropyl)sulfonyl]carbamoyl}cyclopropyl]-14-methoxy-3,6-dioxo-1a,1b,3,4,5,6,9,10,18,19,20,21,22,22a, 23,23a-hexadecahydro-1H,8H-7,10-methanocyclopropa[3′,4′]cyclopenta [1′,2′:18,19][1,10,3,6]dioxadiazacyclononadecino[11,12-b]quinoxaline-8-carboxamide] the same measures were 8.07, 7.26, 6.96, 5.61 and 6.15.
`COc1ccc2nc3c(nc2c1)O[C@@H]1C[C@@H](C(=O)N[C@]2(C(=O)NS(=O)(=O)C4(C)CC4)C[C@H]2C(F)F)N(C1)C(=O)[C@H](C(C)(C)C)NC(=O)O[C@@H]1C[C@@H]2C[C@@H]2[C@H]1CCCCC3(F)F` [Example 10, (1aS,2aR,6S,9S,11R,23aR,23bS)-6-tert-butyl-N-[(1R,2R)-2-(difluoromethyl)-1-{[(1-methylcyclopropyl)sulfonyl]carbamoyl}cyclopropyl]-19,19-difluoro-15-methoxy-4,7-dioxo-1a,2,2a,4,5,6,7,10,11,19,20,21,22,23,23a,23b-hexadecahydro-1H,9H-8,11-methanocyclopropa [4′,5′]cyclopenta[1′,2′:18,19][1,10,3,6]dioxadiazacyclononadecino[11,12-b]quinoxaline-9-carboxamide] had a negative-log Ki (pKi) on NS3 genotype 3a protease of 10.70. Besides, the negative logarithm of the EC50 (pEC50) in experiment [1] was 8.85; in experiment [2], 8.80; in experiment [3], 8.31; in experiment [4], 9.00.
